According to patent US20240074996A1, “C5 KETONE COMPOSITIONS AND RELATED METHODS FOR TREATING METABOLIC DYSFUNCTION” (Keto Innovations, LLC, priority 2018, published 2024):

What was measured:
[1] = Blood glucose after oral BHP or BKP (Example 1); format: in vivo, human; details: 10 g oral in water, 12 h fast
Description: (§1) Two (2) healthy, male subjects reported to the laboratory following a 12 hour overnight fast. Subjects were instructed to randomly consume either 10 grams of BHP or 10 grams BKP dissolved in 12 ounces of water. Subjects were then monitored for 150 minutes following drinking the mixture. Blood glucose, ketones, and visual analog scales (VAS) of well-being, energy, and focus were taken at 0, 30, 60, 90, 120, and 150 minutes. VAS scales consisted of a continuum of numbers from 1-10 with 1 being extremely low and 10 being extremely high.
(§2) Blood ketones were measured via finger prick using an Abbott Precision device which determines mMol of BHB. Blood glucose was measured using Abbott Precision glucose strips and was measured in mg/dL.

[2] = Borg Rating of Perceived Exertion during cycling exercise (Example 2); format: in vivo, human; details: 10 grams
Text: The purpose of this experiment was to see if C5 ketones could lower exertion during moderate and high intensity cycling exercise. Five (5) college aged males were given a placebo or BKP (10 grams) prior to and during 2-minute low, moderate and high intensity cycling bouts. […] Perceived exertion is how hard one feels like the body is working.

[3] = Visual analog scale of focus after BHP or BKP (Example 1); format: in vivo, human; details: scale 1-10, 10 g oral, 12 h fast
Description: as §1

[4] = Visual analog scale of energy after BHP or BKP (Example 1); format: in vivo, human; details: scale 1-10, 10 g oral, 12 h fast
Description: as §1

[5] = in vivo, cited from earlier work
[6] = Visual analog scale of well-being after BHP or BKP (Example 1); format: in vivo, human; details: scale 1-10, 10 g oral, 12 h fast
Description: as §1

[7] = Blood ketones (BHB, Abbott Precision) after oral BHP or BKP (Example 1); format: in vivo, human; details: 10 g oral in water, 12 h fast
Description: as §1, §2

SMILES: CCC(=O)CC(=O)O [BKP, β-ketopentanoate]
- Blood glucose levels ([1]; Combined, 0 min.): 89.5 mg/dL
- Blood glucose levels ([1]; Combined, 30 min.): 87.5 mg/dL
- Blood glucose levels ([1]; Combined, 60 min.): 81 mg/dL
- Blood glucose levels ([1]; Combined, 90 min.): 79.5 mg/dL
- Blood glucose levels ([1]; Combined, 120 min.): 87.5 mg/dL
- Blood glucose levels ([1]; Combined, 150 min.): 84 mg/dL
- Blood glucose levels ([1]; Subject 1, 0 min.): 88 mg/dL
- Blood glucose levels ([1]; Subject 1, 30 min.): 84 mg/dL
- Blood glucose levels ([1]; Subject 1, 60 min.): 79 mg/dL
- Blood glucose levels ([1]; Subject 1, 90 min.): 83 mg/dL
- Blood glucose levels ([1]; Subject 1, 120 min.): 85 mg/dL
- Blood glucose levels ([1]; Subject 1, 150 min.): 87 mg/dL
- Blood glucose levels ([1]; Subject 2, 0 min.): 91 mg/dL
- Blood glucose levels ([1]; Subject 2, 30 min.): 91 mg/dL
- Blood glucose levels ([1]; Subject 2, 60 min.): 83 mg/dL
- Blood glucose levels ([1]; Subject 2, 90 min.): 76 mg/dL
- Blood glucose levels ([1]; Subject 2, 120 min.): 90 mg/dL
- Blood glucose levels ([1]; Subject 2, 150 min.): 81 mg/dL
- Rating of Perceived Exertion (RPE) High Intensity ([2]; college aged males, 2-minute cycling bout, High Intensity): 17 ± 2
- Rating of Perceived Exertion (RPE) Low Intensity ([2]; college aged males, 2-minute cycling bout, Low Intensity): 9 ± 1
- Rating of Perceived Exertion (RPE) Moderate Intensity ([2]; college aged males, 2-minute cycling bout, Moderate Intensity): 13 ± 2
- Rating of Perceived Exertion (RPE) 30 min.-Post ([2]; college aged males, cycling, 30 min.-Post): 8 ± 1
- Rating of Perceived Exertion (RPE) Baseline ([2]; college aged males, cycling, Baseline): 7 ± 1
- Perceived exertion compared to a placebo ([2]; moderate and high intensity cycling): lower perceived exertion at both moderate and high intensity exercise
- VAS of Focus ([3]; Combined, 0 min.): 5.5
- VAS of Focus ([3]; Combined, 30 min.): 5.5
- VAS of Focus ([3]; Combined, 60 min.): 6
- VAS of Focus ([3]; Combined, 90 min.): 6.5
- VAS of Focus ([3]; Combined, 120 min.): 7
- VAS of Focus ([3]; Combined, 150 min.): 7
- VAS of Focus ([3]; Subject 1, 0 min.): 6
- VAS of Focus ([3]; Subject 1, 30 min.): 5
- VAS of Focus ([3]; Subject 1, 60 min.): 7
- VAS of Focus ([3]; Subject 1, 90 min.): 7
- VAS of Focus ([3]; Subject 1, 120 min.): 7
- VAS of Focus ([3]; Subject 1, 150 min.): 8
- VAS of Focus ([3]; Subject 2, 0 min.): 5
- VAS of Focus ([3]; Subject 2, 30 min.): 6
- VAS of Focus ([3]; Subject 2, 60 min.): 5
- VAS of Focus ([3]; Subject 2, 90 min.): 6
- VAS of Focus ([3]; Subject 2, 120 min.): 7
- VAS of Focus ([3]; Subject 2, 150 min.): 6
- VAS of Energy ([4]; Combined, 0 min.): 6
- VAS of Energy ([4]; Combined, 30 min.): 6.5
- VAS of Energy ([4]; Combined, 60 min.): 7
- VAS of Energy ([4]; Combined, 90 min.): 7
- VAS of Energy ([4]; Combined, 120 min.): 7.5
- VAS of Energy ([4]; Combined, 150 min.): 8
- VAS of Energy ([4]; Subject 1, 0 min.): 7
- VAS of Energy ([4]; Subject 1, 30 min.): 7
- VAS of Energy ([4]; Subject 1, 60 min.): 7
- VAS of Energy ([4]; Subject 1, 90 min.): 8
- VAS of Energy ([4]; Subject 1, 120 min.): 8
- VAS of Energy ([4]; Subject 1, 150 min.): 9
- VAS of Energy ([4]; Subject 2, 0 min.): 5
- VAS of Energy ([4]; Subject 2, 30 min.): 6
- VAS of Energy ([4]; Subject 2, 60 min.): 7
- VAS of Energy ([4]; Subject 2, 90 min.): 6
- VAS of Energy ([4]; Subject 2, 120 min.): 7
- VAS of Energy ([4]; Subject 2, 150 min.): 7
- Utilisation after intravenous administration ([5]; iv): very rapidly used
- Metabolism and tolerance in animals [5]: well metabolized in animals without apparent intolerance
- VAS of Well-Being ([6]; Combined, 0 min.): 6.5
- VAS of Well-Being ([6]; Combined, 30 min.): 6.5
- VAS of Well-Being ([6]; Combined, 60 min.): 7.5
- VAS of Well-Being ([6]; Combined, 90 min.): 7.5
- VAS of Well-Being ([6]; Combined, 120 min.): 8
- VAS of Well-Being ([6]; Combined, 150 min.): 8
- VAS of Well-Being ([6]; Subject 1, 0 min.): 7
- VAS of Well-Being ([6]; Subject 1, 30 min.): 7
- VAS of Well-Being ([6]; Subject 1, 60 min.): 9
- VAS of Well-Being ([6]; Subject 1, 90 min.): 9
- VAS of Well-Being ([6]; Subject 1, 120 min.): 9
- VAS of Well-Being ([6]; Subject 1, 150 min.): 9
- VAS of Well-Being ([6]; Subject 2, 0 min.): 6
- VAS of Well-Being ([6]; Subject 2, 30 min.): 6
- VAS of Well-Being ([6]; Subject 2, 60 min.): 6
- VAS of Well-Being ([6]; Subject 2, 90 min.): 6
- VAS of Well-Being ([6]; Subject 2, 120 min.): 7
- VAS of Well-Being ([6]; Subject 2, 150 min.): 7
- Blood ketone levels ([7]; Combined, 0 min.): 0.1 mmol
- Blood ketone levels ([7]; Combined, 30 min.): 0.1 mmol
- Blood ketone levels ([7]; Combined, 60 min.): 0.2 mmol
- Blood ketone levels ([7]; Combined, 90 min.): 0.1 mmol
- Blood ketone levels ([7]; Combined, 120 min.): 0.1 mmol
- Blood ketone levels ([7]; Combined, 150 min.): 0.1 mmol
- Blood ketone levels ([7]; Subject 1, 0 min.): 0.1 mmol
- Blood ketone levels ([7]; Subject 1, 30 min.): 0.1 mmol
- Blood ketone levels ([7]; Subject 1, 60 min.): 0.2 mmol
- Blood ketone levels ([7]; Subject 1, 90 min.): 0.1 mmol
- Blood ketone levels ([7]; Subject 1, 120 min.): 0.1 mmol
- Blood ketone levels ([7]; Subject 1, 150 min.): 0.1 mmol
- Blood ketone levels ([7]; Subject 2, 0 min.): 0.1 mmol
- Blood ketone levels ([7]; Subject 2, 30 min.): 0.1 mmol
- Blood ketone levels ([7]; Subject 2, 60 min.): 0.2 mmol
- Blood ketone levels ([7]; Subject 2, 90 min.): 0.1 mmol
- Blood ketone levels ([7]; Subject 2, 120 min.): 0.1 mmol
- Blood ketone levels ([7]; Subject 2, 150 min.): 0.1 mmol
